We go through two compounds from patent US20250332154A1, “USE OF NAPHTHOQUINE PHOSPHATE IN PREPARATION OF A MEDICAMENT FOR TREATING AUTOIMMUNE DISEASES” (SHANGHAI PHARMACEUTICALS INDUSTRY CO., LTD, priority 2022, published 2025).

For series [1], the system named is mouse whole spleen lymphocytes (ConA-induced T cell activation and proliferation). Kind of series: ConA-induced lymphocyte proliferation assay (3H-thymidine). Type of series: cell-based. To be noted: Mus musculus, Lymphocyte, read-out: ConA IC50. How it is done:
(§1) BALB/c mice were sacrificed by cervical dislocation, and spleens were aseptically excised to prepare whole spleen lymphocytes. The cells were adjusted to the required concentration.
(§2) A suspension of mouse spleen lymphocytes was inoculated into a 96-well plate at 5×10^5/well, and ConA (final concentration: 1 μg/ml) or LPS (final concentration: 10 μg/ml) and the above 10 concentration gradients of the compound were added. Corresponding cell control wells without ConA and LPS, as well as medicament-free stimulated control wells, were set up. The cells were cultured in a 37° C., 5% CO2 incubator for 48 hours. Eight hours before the end of the culture, ^3H-thymidine was added, and the culture continued until the end of the experiment (i.e., the aforementioned 48 hours). The cells were collected onto glass fiber membranes using a cell collector.
(§3) ConA and LPS, as mitogens, stimulated proliferation and differentiation of T and B lymphocytes, respectively. This process is similar to the activation process of lymphocytes in vivo. Therefore, mitogen-induced lymphocyte proliferation is commonly used as an indicator to evaluate functionality of lymphocytes.

Series [2] can be described thus: Non-specific cytotoxicity assay (MTT), mouse spleen lymphocytes. Type of series: cell-based. To be noted: BALB/c, mouse, mouse whole spleen lymphocytes. As for the experimental part: BALB/c mice were sacrificed by cervical dislocation, and spleens were aseptically excised to prepare whole spleen lymphocytes. The cells were adjusted to the required concentration. The compound concentrations started at 250 μM and was diluted with a 4-fold gradient to obtain 10 concentrations: 250, 62.5, 15.625, 3.906, 0.977, 0.244, 0.061, 0.015, 0.004 and 0.001 μM.
A suspension of mouse spleen lymphocytes was inoculated into a 96-well plate at 8×10^5/well, and the above 10 concentration gradients of the compound were added. A corresponding cell control (i.e. spleen lymphocyte culture system without compound) and a RPMI 1640 culture medium background control (blank culture medium control) were set up. The cells were cultured in a 37° C., 5% CO2 incubator for 48 hours. Four hours before the end of the culture, 20 μl of 5 mg/ml MTT solution was added, and the reaction continued until the end of the culture (i.e. the aforementioned 48 hours). The supernatant was aspirated and discarded, 200 μl DMSO was added to each well to dissolve the crystals. […]. The absorbance value was measured at […] with a microplate reader (Spectra Max 190, Molecular Devices).

Series [3] deals with mouse whole spleen lymphocytes (LPS-induced B cell activation and proliferation). Kind of series: LPS-induced lymphocyte proliferation assay (3H-thymidine). Type of series: cell-based. To be noted: Mus musculus, Lymphocyte, read-out: LPS IC50. How it is done:
as §1, §2, §3

A further series has as its system RAW264.7 cells. Kind of series: Non-specific cytotoxicity assay (MTT), RAW264.7. The settings on record: 48 hours. In kind it is cell-based, mouse. How it is done:
RAW264.7 cells were inoculated into a 96-well plate at 1×10^5/well and allowed to adhere to the wall for 6 hours in a 37° C., 5% CO2 incubator. […] A corresponding solvent control (cell control) and a culture medium background control (blank control) were set up. The cells were cultured in a 37° C., 5% CO2 incubator for 48 hours. Fifteen minutes before the end of the culture, 20 μl of 5 mg/ml MTT was added. At the end of the culture, the supernatant was aspirated and discarded, 200 μl DMSO was added to dissolve the crystals.

Another series has as its system IL-1β. Kind of series: IL-1β production by LPS-induced RAW264.7 cells (ELISA). Type of series: cell-based, mouse. As for the experimental part:
(§4) RAW264.7 cells were inoculated into a 96-well plate at 1×10^5/well and allowed to adhere to the wall for 6 hours in a 37° C., 5% CO2 incubator. […] After the cells adhered to the wall, the stimulant LPS (final concentration: 10 μg/ml) and the gradient-diluted compounds were added. A corresponding stimulation control and a cell control (without stimulation) were set up. After the end of the culture, the cell culture supernatants were collected, and the levels of TNF-α, IL-1β and IL-6 were measured by ELISA.
(In general: In an ELISA, binding on a coated surface is turned into a signal by an enzyme label.)

The test system of the next series is TNF-α. Kind of series: TNF-α production by LPS-induced RAW264.7 cells (ELISA). In kind it is cell-based, mouse. How it is done:
as §4

A further series relates to IL-6. Kind of series: IL-6 production by LPS-induced RAW264.7 cells (ELISA). Type of series: cell-based, mouse. How it is done:
as §4

By IC50 is commonly meant the midpoint of a concentration-inhibition curve. The CC50 is the concentration giving 50% cytotoxicity. A low value points to harm at low concentration. For the compound `CCN(CC)CCCC(C)Nc1ccnc2cc(Cl)ccc12` (stereo not shown) [Chloroquine Phosphate], the IC50 in series [1] is 14.3 µM; in series [3], 15.1 µM. The CC50 at 48 h in series [2] is 26.9 µM.
Regarding Chloroquine Sulfate, the CC50 with RAW264.7 cells was 26.6 µM. Moreover, the concentration for half-maximal inhibition (IC50) in the series with IL-1β (LPS 10 μg/ml, RAW264.7, read-out: IB-1β IC50) was 2.72 µM; in the series with TNF-α (LPS 10 μg/ml, RAW264.7), 32.6 µM; with IL-6 (LPS 10 μg/ml, RAW264.7), 14.7 µM. In addition, in the series with IL-1β (RAW264.7, in words), the “production of LPS-induced IL-1β” value is reported as “significantly inhibited”. Moreover, the “production of TNF-α” value in the series with TNF-α (LPS-induced RAW264.7, in words) was “no significant effect”. Moreover, the “production of IL-6” value with IL-6 (LPS-induced RAW264.7, in words) is “no significant effect”.
